The test system of test [1] is head and neck cancer patients. Nature of the test: DAHANCA 5 trial: Nimorazole or placebo in conjunction with conventional radiotherapy, loco-regional tumour control. It counts as in vivo, human. From the text: In order to test the predictive potential for hypoxic modification of radiotherapy obtained by nitroimidazoles, the 15-gene classifier was applied on all 323 HNSCC biopsies from patients enrolled in the DAHANCA 5 trial. […] Overall, the hypoxia classifier categorized 114 tumours (35%) as “more” hypoxic and 209 tumours (65%) as “less” hypoxic. […] No significant difference in loco-regional tumour control could be detected between the two groups if treatment intervention was ignored (p=0.07), (FIG. 3b). […] This hypothesis could not be supported by the 15-gene hypoxia classifier that identified similar relative distribution of “more” hypoxic tumours among the HPV/p16-positive tumours as among the HPV/p16-negative tumours (Table 5). Thus, it appears that the cause for different prognosis must be searched elsewhere and might be related to a reduced number of radio-resistant cancer stem cells in the HPV/p16-positive tumors.
Hypoxia responsive and pH independent genes were identified by microarray analysis (Affymetrix Human Genome U133 Plus 2.0 Array) of relevant cell lines of squamous cell carcinoma, which were cultured in vitro where microenvironment conditions had been manipulated (0.1% vs. 5% pO2 and 7.4 vs. 6.3 pH). In vivo validation was performed by converting the cell lines into a xenograft model and comparing the gene expression in hypoxic and non-hypoxic tumour areas (Wilcoxon signed rank analysis) guided by a well established hypoxic tracer and [^18F] FAZA. A hypoxia gene expression classifier was build by separating 58 previously hypoxia evaluated formalin fixated paraffin embedded (FFPE) head and neck tumour biopsies into “more” and “less” hypoxic tumours. […] Independent tumours were then to be classified to the group (“more” or “less” hypoxic), in which their gene expression expressed the greatest similarities. The classifier was tested in an independent set of 323 FFPE biopsies of head and neck cancer, were patients had been randomized and treated with either placebo or the hypoxic modifier Nimorazole in conjunction with conventional radiotherapy^4. We verified whether the 15-gene hypoxia classifier could identify a subset of tumours having benefit from Nimorazole in conjunction with radiotherapy, by comparing the clinical outcome and the response to hypoxic modification in the two classified groups with log-rank test, cox-regression analysis and test for interaction.
In vitro experiments were based on human squamous cell carcinoma cell lines UTSCC5, UTSCC14, UTSCC15 (oral carcinoma), FADUDD (hypopharyngeal carcinoma) and SiHa (uterine cervix carcinoma). Xenograft tumours for in vivo validation were generated with cell lines of UTSCC33, FADUDD or SiHa. The hypoxia classifier was generated from 58 previously hypoxia evaluated head and neck cancer biopsies archived as formalin fixated and paraffin embedded samples (FFPE). To test the prognostic and predictive impact of the developed classifier, we used 323 archival supraglottic larynx or pharynx tumour samples (FFPE) from the randomized, double blinded DAHANCA 5 trial.
H, N and M areas of the xenograft tumours were compared with the Wilcoxon's signed rank analysis. End point used in the evaluation of the classifier in the independent data set, was actuarial loco-regional tumour control probability at 5 years, defined as complete and persistent disappearance of the disease in the primary tumour (T site) and regional lymph nodes (N site) after radiotherapy. Failure was recorded in the event of recurrent tumour or if the tumour never completely disappeared. Follow-up was completed as part of the original study. […] Patient and tumour characteristics of the “more” and “less” hypoxic” groups divided by the hypoxia classifier were compared using the Chi Squared test for categorical variables. Loco-regional tumour control in the two groups was illustrated with a Kaplan Meier plot and compared using the log-rank test. […]

Test [2] relates to head and neck cancer patients. As to conditions: cited from earlier work.

Here are results for one compound from US10385399B2, “Method for determining clinically relevant hypoxia in cancer” (AARHUS UNIVERSITET, priority 2011, dated 2019).

Consider `O=[N+]([O-])c1cncn1CCN1CCOCC1` [Nimorazole, 4-[2-(5-nitro-1H-imidazol-1-yl)ethyl]morpholine], for which the “HR (95% CI) loco-regional tumour control, Nimorazole vs placebo” value in test [1] (Cox multivariate analysis, "Less" hypoxic group by 15-gene hypoxia classifier) is recorded as 0.97 (0.65-1.44); in test [1] (Cox multivariate analysis, "More" hypoxic group by 15-gene hypoxia classifier) it was 0.44 (0.27-0.73); in test [1] (Cox multivariate analysis, all patients (n = 323)), 0.70 (0.51-0.96); in test [1] (Univariate analysis, "Less" hypoxic group by 15-gene hypoxia classifier (n = 209)), 0.85 (0.50-1.38); in test [1] (Univariate analysis, "More" hypoxic group by 15-gene hypoxia classifier (n = 114)), 0.46 (0.29-0.75); in test [1] (Univariate analysis, all patients (n = 323), with conventional radiotherapy), 0.72 (0.53-0.97). For the same compound, the “outcome in terms of loco-regional tumour control after radiotherapy vs placebo” value in test [1] (all 323 HNSCC patients, irrespective of hypoxia classification, p=0.03) is on record as “significantly improved outcome”. The “loco-regional tumour control after 5 years” value in test [1] (group classified as "less" hypoxic, Nimorazole with radiotherapy (vs. 44%, p=0.42)) is 50%; in test [1] (group classified as "more" hypoxic, Nimorazole with radiotherapy (placebo 18%, p=0.002)) it was 49%. Further, the “outcome compared to placebo in conjunction with radiotherapy” value in test [2] (DAHANCA 5 trial as described in the background, head and neck cancer patients) is recorded as “improved outcome”. Moreover, the “effect on loco-regional tumour control of HPV/p16-positive tumors” value in test [2] (HPV/p16-positive tumours, previously shown in the DAHANCA 5 study) was “without any beneficial effect”.
